The record followed here is patent publication US11110182B2, “Multifunctional RNA nanoparticles and methods for treating cancer and therapeutic resistant cancer” (University of Cincinnati, priority 2016, dated 2021).

Strand notation (5' to 3'): a small letter for the sugar, then the base; units joined by * are phosphorothioate-linked, units joined directly phosphodiester-linked; [ ] holds rarer units or linkages, { } end groups; capitals alone tell only the bases. r = 2'-OH (RNA); f = 2'-fluoro

The subject of data set [1] is BT474 orthotopic xenograft tumors. Put plainly: Anti-tumor therapy in BT474 orthotopic xenograft breast tumor mouse model. It counts as in vivo, athymic nude mice. The settings on record: single agent; for tumor lung metastasis: H&E staining of whole lung. The method, then: FIG. 5A) BT474 orthotopic xenograft mouse models were treated with control pRNA-HER2apt-siScram or pRNA-HER2apt-siMED1 (4 mg/Kg) once a week, in combination with vehicle or tamoxifen (TAM, 0.5 mg/mice/day) 5 days per week. Tumor sizes were measured every three days. FIG. 5B) After three weeks, mice were i.p. injected with D-luciferin, and representative in vivo images of BT474 tumors were recorded using IVIS Lumina imaging system. FIG. 5C) Average weight of the tumors excised at the end of the treatment, and FIG. 5D) the representative photos of tumors. FIG. 5E and FIG. 5F) MED1 expression in the BT474 tumors was examined using IHC staining and FIG. 5G) immunoblotting. FIG. 5H) The expression of Ki-67 in tumor tissues was analyzed using IHC staining, and FIG. 5I) the percentage of Ki-67 positive cells was counted. Scale bar: 100 μm.
FIG. 6A) Whole lung tissues were fixed, embedded, and sectioned for H&E staining, and FIG. 6B) metastasis foci in the whole lung tissues were then counted. Arrow indicates the metastasis foci. Scale bar: 100 μm. FIG. 6C) After digesting tumor tissues with trypsin and 0.1% collagenase, tumor cells were stained for CD44 and CD24, and FIG. 6D) analyzed for CD44^+CD24^−/low stem cell population using flow cytometry. FIG. 6E) Total RNA in the tumor tissues was extracted using TRIZOL reagent, and the expression of TFF-1, FIG. 6F) c-Myc, FIG. 6G) cyclin D1, and FIG. 6H) MMP-9 were determined by real-time PCR.
Migration and metastasis assay. The 8-μm-pore-size polycarbonate membrane, which separates the two chambers of a 6.5-mm Transwell (Costar), was coated with or without 1:8 DMEM-diluted Matrigel (Corning). Transwell assay was performed as previously described.^57 Briefly, BT474 cells were treated with pRNAs alone or together with 4-hydroxy-tamoxifen (4-OHT) for 48 h and starved with serum-free DMEM containing 0.2% BSA overnight. On the next day, cells were collected and 2×10^5 cells were seeded to the upper chamber of Transwell. The lower chamber was filled with 600 μL DMEM medium containing 10% FBS. After incubation at 37° C. for 24 h, cells on the membranes were fixed and stained with 0.1% crystal violet in 20% ethanol solution. Cells at top side of membranes were removed completely, and cells at the bottom side were examined with an Olympus SZX12 microscope and counted. • Mammosphere culture and breast cancer stem cell analyses. BT474 cells were treated with pRNAs for 48 h. Then, cells were suspended in DMEM/F12 medium supplemented with 1×B27 (Thermo Fisher), 20 ng/mL bFGF and 20 ng/mL EGF (R&D), and added into 24-well ultralow attachment plates. After treatment with or without 1 μM 4-OHT for 7 days, mammosphere formation was recorded using an Axiovert S100 TV inverted microscope (Zeiss). Xenograft tumor tissues were cut into small pieces and digested with trypsin and collagenase at 37° C. for 1 h, and tumor cells were collected and rinsed with pre-cold PBS. All cells were stained with FITC-conjugated anti-CD44 antibody and PE-conjugated anti-CD24 antibody (BD Pharmingen) in the dark on ice for 30 min. After resuspension with 0.5 mL PBS buffer, CD44^+/CD24^−/low cell population was analyzed by flow cytometry. • Orthotopic xenograft breast tumor mouse model, in vivo imaging and anti-tumor therapy. Six-week-old female athymic nude mice were purchased from Charles River Laboratories, and all animal procedures were performed under IACUC-approved protocols at the University of Cincinnati. Athymic nude mice were orthotopically injected with 1×10^7 BT474-luc cells mixed with matrigel into the fat pads of the forth pair of mammary glands. When the tumor sizes reached 100-150 mm^3, the mice were randomly divided into four groups (4/group) and intravenously (i.v.) injected with pRNAs (4 mg/Kg) once a week for three weeks. For tamoxifen treatments, 0.5 mg tamoxifen (Sigma) dissolved in sesame oil was intraperitoneally (i.p.) injected into mice 5 days a week for three weeks. […]

The test system of the next data set is MED1. The data set can be described thus: MED1 protein level by western blotting in BT474 cells. It counts as cell-based, human. The settings on record: BT474, 48 h. The protocol:
FIG. 3A) BT474 cells were incubated with 10 μg/mL control and pRNA-HER2apt-siMED1 nanoparticles for 48 h, and MED1 mRNA level was determined by real-time PCR. FIG. 3B) BT474 cells were incubated directly with (as indicated by -) or transfected with indicated pRNAs using lipofectamine 2000. At 48 h post treatment, MED1 protein levels were determined by western blotting. FIG. 3C) BT474 cells were treated with 10 μg/mL pRNA nanoparticles for 48 h and assayed for cell viability by MTT assay. FIG. 3D) Cells were treated as above and seeded for migration, and FIG. 3E) invasion transwell assays. Scale bar: 50 μm. FIG. 3F) After pRNA treatment for 48 h, the mRNA levels of ERα target genes TFF-1, FIG. 3G) c-Myc, and FIG. 3H) cyclin D1 in BT474 cells were determined by real-time PCR.
FIG. 7A) Six HER2-targeting RNA aptamers were selected from previous literatures, and their secondary structures were predicted using Srna-fold software. FIG. 7B) Six p2 strands containing the six different HER2 RNA aptamers were synthesized and annealed with the same p1 strand to generate six different pRNA-HER2apt-MED1 siRNA nanoparticles, respectively, followed by examination using 8% native PAGE gel electrophoresis. FIG. 7C) BT474 cells were treated with above pRNA nanoparticles for 48 h, and then MED1 protein level was determined by western blotting. […] FIG. 7D) 1 μg pRNA nanoparticles were incubated with recombinant Dicer enzyme (Genlantis) at 37° C. for 12 h, the product was separated by 8% native PAGE gel.
FIG. 9A) BT474 cells were treated with different concentrations of pRNA nanoparticles as indicated for 48 h. After that, MED1 protein level was determined by western blots, and FIG. 9B) the cell viability was determined by MTT assay.
Cell culture. Human breast cancer luciferase-overexpressing BT474 and MDA-MB-231 cells were maintained in DMEM medium (Hyclone, Thermo Scientific) supplemented with 10% fetal bovine serum (FBS, Sigma) and 1% penicillin/streptomycin (Corning) at 37° C. in a humidified atmosphere with 5% CO2.^53 • Generation of pRNA nanoparticles. The two strands of pRNA were synthesized with the DNA templates, which were amplified with overlapping primers (Sigma) by PCR methods, using a T7 promoter-controlled in vitro RNA transcription system as previously described^33 (Table 1). All the CTP and UTP used for synthesis of the pRNA nanoparticles were 2′-fluoro modified, except the control unmodified pRNA nanoparticles used in the stability assays. Following an overnight transcription at 37° C., RNA strands were purified using RNA clean and concentrator kits (ZYMO research) and examined by 8 M urea denatured 8% PAGE gel. pRNA nanoparticles were assembled by mixing the equal molar amounts of p1 and p2 strands and gradually annealing from 90° C. to 20° C. in 1×RNA annealing buffer containing 50 mM Tris-HCl (pH 7.5), 50 mM NaCl and 1 mM EDTA on a PCR machine. […] The hydrodynamic diameter and Tm value of pRNA nanoparticles were determined using dynamic light scattering and TGGE assay, respectively, as previously described.^54 The AFM imaging of the pRNA nanoparticles was performed at the University of Nebraska Medical Center imaging facility as previously reported.^55 Briefly, the pRNA nanoparticles (5 μL) were deposited on APS modified mica ^56 for a total of 2 min of incubation time. […]
For orientation: Immunoblotting shows a protein as a band on a membrane.

Turning to `CC/C(=C(\c1ccccc1)c1ccc(OCCN(C)C)cc1)c1ccccc1` [tamoxifen, reference compound], in data set [1], the tumor lung metastasis result is listed as “multiple tumor lung metastasis foci”. In addition, the tumor growth entry in data set [1] (pRNA 4 mg/Kg i.v. once a week or tamoxifen 0.5 mg i.p. 5 days a week, three weeks) is on record as “only weakly inhibited”.

With “B3 aptamer: HER2-targeting RNA aptamer B3 (SEQ ID NO: 9), tested within pRNA-HER2apt-MED1 siRNA nanoparticles (rGrGrGrArGrGrAfCrGrAfUrGfCrGrGfUfCfUrGfCfUrGfUrGfCfUfUrGrAfUrAfUrGfCfCfCfCrArGrAfCrGrAfCfUfCrGfCfCfC; part of pRNA three-way junction nanoparticle with siRNA)”, the “efficiency of MED1 knockdown among six HER2 RNA aptamers in pRNA nanoparticles” value in the data set on MED1 is reported as “highest efficiency”.

B1: pRNA-HER2apt-siScram: control pRNA nanoparticle with HER2 aptamer and scramble siRNA; strands p1 SEQ ID NO: 1, p2 SEQ ID NO: 2 (nucleic acid)
chain 1: GGAUCACGCUUCAUAUACAAAGGAUCAAUCAUGGCCAAUCUUAUUUCGCCCAUGACCUU
chain 2: GGUCAUGGGCGAAAUAAGAAAGGCCAUGUGUAUGUGGGGGGAGGACGAUGCGGUCUGCUGUGCUUGAUAUGCCCCAGACGACUCGCCCCCCACAUACUUUGUUGAUCCAAUGUAUAUGAAGCGUGAUCCUU
modifications: pRNA-HER2apt-siScram, p1; pRNA-HER2apt-siScram, p2
For the molecule B1, the tumor lung metastasis entry in data set [1] was “multiple tumor lung metastasis foci”.
